# Measurements published in US20220184081A1, “ANTIPRURITIC AGENT USING PAC1 RECEPTOR ANTAGONIST” (KAGOSHIMA UNIVERSITY, priority 2019, published 2022).
# No end group written: not given here.
# What was measured:
# [1] = tested on: psoriasis mouse model; assay: Psoriasis mouse model (imiquimod); type: in vivo, ICR mice; conditions: 30 mg/kg p.o. 30 minutes before 1 hour video observation; FIG. 14
# Method: The present test was carried out with reference to the method of van der Fits et al. that is a test system published as a method for evaluating itch in animals (van der Fits L., Mounts S., Voerman J S A., et al.: Imiquimod-Induced Psoriasis-Like Skin Inflammation in Mice Is Mediated via the IL-23/IL-17 Axis, J. Immunol., 182, 5836-5845, 2009).
# Five-week-old ICR mice (20 mice) were each placed in a cage, and were then conditioned for 1 week. Thereafter, three days before initiation of the test, the waist of each mouse was shaved. Then, 62.5 mg of commercially available imiquimod cream (5% Beselna Cream; MOCHIDA PHARMACEUTICAL CO., LTD.) was applied onto the shaved waist skin of the mice once a day for 5 days, so as to produce imiquimod-induced psoriasis model. Twenty-four hours after the final application of the cream (Day 5), video observation was carried out for 1 hour. The shaved 20 mice were divided into 5 groups (4 mice per group), namely, a 30 mg/kg PA-8 oral (p.o.) administration group, a 30 mg/kg compound 2o oral (p.o.) administration group, a 30 mg/kg PA-9 oral (p.o.) administration group, a 30 mg/kg compound 3d (p.o.) administration group, and a solvent administration group (VEH: oral administration of 10% DMSO aqueous solution). Oral administration was carried out 30 minutes before initiation of the video observation.
# [2] = tested on: Compound 48/80-induced itch behavior in mice; assay: Itch behavior induced by Compound 48/80 intradermal administration; type: in vivo, mouse; conditions: intrathecal pre-administration (i.t., 10 minutes before i.d.), 1 nmol; Compound 48/80 100 μg/10 μL; FIG. 11
# Method: (§1) Compound 48/80 (100 μg/10 μL) was intradermally injected into the waist of each mouse (intradermal injection, i.d.). The reaction of biting, licking or scratching the injected site was defined as itch behavior, and the behavioral time was counted every 5 minutes. […] DMSO (10% solution, dissolved in normal saline) is a solvent for PA-8 or PA-9.
# [3] = tested on: PACAP-induced itch behavior in mice; assay: Itch behavior induced by PACAP intradermal administration; type: in vivo, mouse; conditions: for biting, licking or scratching behavior induced by PACAP (100 pmol) intradermal administration: simultaneous intradermal administration with PACAP, 0.01 to 1 nmol, FIG. 7A, 8, 9
# Text: SLN indicates intradermal administration of normal saline. DMSO (10% solution, dissolved in normal saline) is a solvent for PA-8.
# SLN indicates intradermal administration of normal saline. VEH (10% DMSO solution, dissolved in normal saline) is a solvent for PA-8 and the compound 2o.
# SLN indicates intradermal administration of normal saline. VEH (10% DMSO solution, dissolved in normal saline) is a solvent for PA-9 and the compound 3d.
# [4] = biological target: T1, mouse PAC1 receptor (Mus musculus, UniProt P70205); assay: CREB phosphorylation by PACAP stimulus, Western blot, PAC1/CHO cells; type: cell-based; conditions: PAC1/CHO cells; for CREB phosphorylation by PACAP (1 nM): compound 10 pM to 10 nM for 30 minutes before PACAP, FIG. 4A, 4C, 4D, 5
# T1 construct: expressed in transfected cells; host or cells: CHO cells
# T1 sequence (P70205 21-496): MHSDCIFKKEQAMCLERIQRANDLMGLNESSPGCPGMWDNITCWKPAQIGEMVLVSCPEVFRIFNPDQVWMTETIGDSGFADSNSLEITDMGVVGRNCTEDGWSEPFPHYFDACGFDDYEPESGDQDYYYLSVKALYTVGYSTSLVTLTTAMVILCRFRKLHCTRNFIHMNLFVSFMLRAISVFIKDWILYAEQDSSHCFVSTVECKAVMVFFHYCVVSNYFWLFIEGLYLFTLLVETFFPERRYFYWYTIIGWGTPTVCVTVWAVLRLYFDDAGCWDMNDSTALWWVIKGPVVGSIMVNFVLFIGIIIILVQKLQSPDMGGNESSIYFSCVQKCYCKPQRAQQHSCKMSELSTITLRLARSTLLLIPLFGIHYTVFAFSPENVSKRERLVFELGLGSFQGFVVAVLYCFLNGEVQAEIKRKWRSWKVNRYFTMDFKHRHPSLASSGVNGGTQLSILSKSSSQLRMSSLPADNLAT
# Method: The effect of each compound on the phosphorylation of CREB (cAMP-responsive element-binding protein) produced by a PACAP stimulus was examined by Western blot analysis using an anti-phosphorylated CREB (pCREB) antibody with a mouse PAC1 receptor-expressing CHO cells (PAC1/CHO cells) and a mouse VPAC1 receptor-expressing CHO cells (VPAC1/CHO cells).
# Specifically, treatment with a compound (PA-8, compound 2j and compound 2o) at 10 pM to 10 nM or a solvent therefor, DMSO (VEH: 0.1% DMSO-containing phosphate buffer solution) was performed for 30 minutes, 1 nM PACAP was then added, and protein was recovered within 30 minutes after a PACAP stimulus.
# The effect of each compound on the phosphorylation of CREB (cAMP-responsive element-binding protein) produced by a PACAP stimulus was examined by Western blot analysis using an anti-phosphorylated CREB (pCREB) antibody with a mouse PAC1 receptor-expressing CHO cells (PAC1/CHO cells).
# [5] = tested on: atopic dermatitis mouse model; assay: Atopic dermatitis mouse model (DNFB); type: in vivo, ICR mice; conditions: 30 mg/kg p.o. 30 minutes before 1 hour video observation; FIG. 13
# Method: The present test was carried out with reference to the method of Kitamura et al. that is a test system published as a method for evaluating itch in animals (Kitamura A., Takata R., Aizawa S., et al.: A murine model of atopic dermatitis can be generated by painting the dorsal skin with hapten twice 14 days apart, Scientific Rep., 8: 5988, 2018).
# Five-week-old ICR mice (30 mice) were each placed in a cage, and were then conditioned for 1 week. Thereafter, three days before initiation of the test, the waist of each mouse was shaved. On the experiment start date, for the purpose of destroying the function of skin barrier, tape stripping was carried out, and 0.15% 2,4-dinitrofluorobenzene (DNFB) solution [acetone/olive oil (3:1)] was applied to the shaved waist of each mouse, using a 100-μIL pipette. Seven days later, the 0.15% DNFB solution was applied thereto once again, and two hours later, video observation was carried out for 1 hour. The shaved 30 mice were divided into 5 groups (6 mice per group), namely, a 30 mg/kg PA-8 oral (p.o.) administration group, a 30 mg/kg compound 2o oral (p.o.) administration group, a 30 mg/kg PA-9 oral (p.o.) administration group, a 30 mg/kg compound 3d (p.o.) administration group, and a solvent administration group (VEH: oral administration of 10% DMSO aqueous solution). Oral administration was carried out 30 minutes before initiation of the video observation.
# An outline of the procedures of a behavioral experiment using the atopic dermatitis mouse model is shown in FIG. 12, and the results obtained by evaluating the time spent in scratching of each group are shown in FIG. 13.
# [6] = tested on: chloroquine-induced itch behavior in mice; assay: Itch behavior induced by chloroquine intradermal administration; type: in vivo, mouse; conditions: intrathecal pre-administration (i.t., 10 minutes before i.d.), 1 nmol; chloroquine 100 μg/10 μL; FIG. 10
# Method: as §1, with “Chloroquine” for “Compound 48/80”
# [7] = tested on: serotonin (5-HT)-induced itch mouse model; assay: Serotonin (5-HT)-induced itch mouse model; type: in vivo; conditions: intrathecal pre-administration 30 minutes before 5-HT 50 nmol i.d.; PA-8 0.1 or 1 nmol; P6-38 100 pmol; FIG. 1
# Method: 5-HT (50 nmol, 10 μL) was intradermally injected into the waist of each mouse (intradermal injection, i.d.). The reaction of the mice to bite, lick or scratch the injected site was defined as an itch behavior, and the action time was measured every 5 minutes. […] SLN indicates the effects obtained in the case of administering normal saline instead of 5-HT. ACSF is an abbreviation of an artificial cerebrospinal fluid, which was a solvent for P6-38 and PA-8.
# [8] = tested on: patients with atopic dermatitis; conditions: patients with high severity, insufficient effect of topical steroids/tacrolimus; cited from earlier work
# [9] = tested on: mice; assay: Itch behavior upon waist intradermal administration of peptide; type: in vivo, mouse; conditions: waist intradermal administration 10 μL; PACAP 1 to 1,000 pmol; VIP 100 pmol; FIG. 6
# Text: Accordingly, it is considered that this effect is mediated by the PAC1 receptors (FIG. 6).
Compound,itch behavior induced by application of imiquimod (time spent in scratching) [1],"biting, licking or scratching behavior induced by PACAP (100 pmol) intradermal administration [3]",CREB phosphorylation by PACAP (1 nM) [4],itch behavior induced by the DNFB treatment (time spent in scratching) [5],further results
O=C(NCCc1c[nH]cn1)C1CC(=O)N(c2n[nH]c3ccccc23)C1 (centres unmarked) [PA-9],significantly suppressed,suppressed in a dose-dependent manner,suppressed depending on the concentration,significantly suppressed,Compound 48/80-induced itch behavior [2]: almost completely suppressed; chloroquine-induced itch behavior [6]: almost completely suppressed
"CCOc1cccc(C2CC(=O)Nc3nc(N)[nH]c(=O)c32)c1 (centres unmarked) [compound 2j, 2-Amino-5-(3-ethoxyphenyl)-5,8-dihydro-3H,6H-pyrido[2,3-d]pyrimidine-4,7-dione]",,,suppressed depending on the concentration,,
"Nc1nc2c(c(=O)[nH]1)C(c1cccc(OC(F)(F)F)c1)CC(=O)N2 (centres unmarked) [compound 2o, 2-Amino-5-(3-trifluoromethoxyphenyl)-5,8-dihydro-3H,6H-pyrido[2,3-d]pyrimidine-4,7-dione]",significantly suppressed,suppressed in a dose-dependent manner,suppressed CREB phosphorylation,significantly suppressed,effect of suppressing CREB phosphorylation compared with PA-8 ([4]; 10 pM to 10 nM): slightly stronger effect of suppressing CREB phosphorylation than PA-8
"O=C(NCCc1c[nH]cn1)C1CC(=O)N(c2n[nH]c3c(Cl)cccc23)C1 (centres unmarked) [compound 3d, N-[2-(1H-imidazol-4-yl)ethyl]-1-(7-chloro-1H-indazol-3-yl)-5-oxo-3-pyrrolidinecarboxamide]",significantly suppressed,suppressed in a dose-dependent manner,suppressed depending on the concentration,significantly suppressed,
O=C1CC[C@@]2(O)[C@H]3Cc4ccc(O)c5c4[C@@]2(CCN3CC2CC2)[C@H]1O5 [naltrexone],,,,,"itch behavior induced by PACAP (100 pmol) intradermal administration ([3]; subcutaneous administration 1 mg/kg 15 minutes before PACAP, FIG. 7B): significantly suppressed"
PACAP 6-38,,,,,"5-HT-induced itch behavior (bite, lick or scratch the injected site, action time) [7]: did not provide significant effects"
dupilumab: human type anti-human IL-4/IL-13 receptor monoclonal antibody,,,,,share of patients for whom the drug is effective [8]: approximately 40%
"vasoactive intestinal peptide (HSDAVFTDNYTRLRKQMAVKKYLNSILN; ends and bridges not checked; UniProt P01282 125-152, looked up) [VIP]",,,,,"itch behavior (biting, licking or scratching the administered site) caused by the peptide [9]: such effect was not observed"
